Measurements published in patent US12704520B2, “Melanogenesis detection method using FAM86A” (Research & Business Foundation Sungkyunkwan University, priority 2019, dated 2026).

Tests used:
[1] = test system: B16F10 cells; assay: Melanin content assay after FAM86A knockdown and α-MSH treatment; format: cell-based, mouse; conditions: FAM86A knockdown plus α-MSH 100 nM, 48 hours, absorbance 405 nm
Protocol: A melanocyte stimulating hormone (α-MSH), which is a melanin synthesis promoting hormone, was used to induce melanogenesis in melanocytes.
The B16F10 cells cultured in Example 1 were seeded in 6-well plates at a density of 5×10^4 cells per well, grown for 24 hours, and FAM86A shRNA represented by SEQ ID NO: 17 in Table 1 was used for knockdown of the FAM86A gene. The cells were treated with α-MSH to be 100 nM. The resulting cells were cultured in an incubator under conditions of 37° C. and 5% CO2 for 48 hours, the medium was removed, and a cell lysis buffer was treated at 200 μL per well to lyse the cells, followed by centrifugation at 4° C. and 12,000 rpm for 5 minutes and removal of a supernatant. The resulting pellet was treated with 100 μL of a 10% sodium dodecyl sulfate-1M NaOH solution and heated for 30 minutes at 60° C. Afterward, the heated solution was maintained at room temperature to cool to 25° C., absorbance at 405 nm was measured, and the results are shown in FIG. 12. Here, an amount of melanin production was calculated based on 100% of the amount of melanin in cells not treated with α-MSH.

[2] = test system: FAM86 (NM_027446.2); assay: shRNA mean knockdown level of FAM86 (Table 1); format: cell-based; conditions: Mus musculus FAM86, pLKO.1 vector
[3] = test system: B16F10 cells; assay: Melanin content assay after FAM86A knockdown; format: cell-based, mouse; conditions: FAM86A knockdown without α-MSH, 48 hours, absorbance 405 nm
Protocol: The B16F10 cells cultured in Example 1 were seeded in a 6-well plate at 5×10^4 cells/well and cultured for 24 hours, and the knockdown of the FAM86A gene was induced using FAM86A shRNA represented by SEQ ID NO: 17. The cells were cultured in an incubator under conditions of 37° C. and 5% CO2 for 48 hours, the medium was removed, and then a cell lysis buffer was added at 200 μL per well to lyse the cells, followed by centrifugation at 4° C. and 12,000 rpm for 5 minutes and removal of a supernatant. The resulting pellet was treated with 100 μL of a 10% sodium dodecyl sulfate-1M NaOH solution, and heated for 30 minutes at 60° C. Afterward, the heated solution was maintained at room temperature to cool to 25° C., and absorbance at 405 nm was measured. Here, an amount of melanin production was calculated based on 100% of the amount of melanin in cells in which the FAM86A gene was not knocked down.

[4] = test system: cAMP; assay: cAMP ELISA after FAM86A knockdown; format: cell-based, mouse; conditions: B16F10 cells
Protocol: The B16F10 cells cultured in Example 1 were seeded in 6-well plates at a density of 5×10^4 cells per well, grown for 24 hours, and FAM86A shRNA represented by SEQ ID NO: 17 was used for FAM86A gene knockdown. Afterward, the cells were washed twice with PBS. Subsequently, PBS was completely removed, and then 200 μL of RIPA buffer, which is a tissue lysis and staining reagent, was added to each plate, followed by harvesting cells with a scraper. Afterward, a BCA assay was conducted to quantify proteins, and then the expression of cAMP protein was measured using a cAMP ELISA kit (ab65355).

For “SEQ ID NO: 17: FAM86 shRNA (Mus musculus, NM_027446.2), pLKO.1 vector, target sequence SEQ ID NO: 27; used in the examples (DNA CCGGGTCTATGTAGCCTATACTATCCTCGAGGATAGTATAGGCTACATAGACTTTTTG)”, the “amount of melanin (production)” value [1] was “increased”, the “Mean Knock down level” value [2] was 0.87 and the “amount of melanin (production)” value [3] was “increased”. The cAMP expression [4] was “increased”.
